{"source": "patent US20100286229A1", "about": "“Modulation of Androgen Receptor for Treatment of Prostate Cancer” (priority 2005, published 2010)", "type_in_all_cases": "cell-based, human", "key": {"CWR22R cells": {"tested_on": "CWR22R cells", "test": "Cell growth by methylene blue staining in CSS medium with DHT, CWR22R", "settings": "10 nM DHT"}, "AR [1]": {"tested_on": "AR", "test": "AR protein level in cells transduced with AR-lentivirus, CSS medium with or without DHT (Western blotting)", "settings": "DHT-containing media vs CSS without DHT", "method": "(§1) Cells were plated in 6 well plates at 10^5/well. The next day, cells were transduced with concentrated GFP or AR lentiviruses, yielding 50-100% transduction efficiency. […] The medium was changed every 48 h. Cells were collected for Western blotting and luciferase assays at different time points or fixed and stained with methylene blue on day 8 after transduction.\n(§2) The growth of cells overexpressing AR, cultured in CSS with no DHT, was not different from GFP expressing cells. Thus, this growth reflects the general sensitivity of certain type of cells to the presence of steroids in medium (FIG. 13A)."}, "Hela cells": {"tested_on": "Hela cells", "test": "Growth of AR-negative Hela cells with DHT (data not shown)"}, "AR overexpressing cells": {"tested_on": "AR overexpressing cells", "test": "Growth of cells transduced with AR lentivirus in CSS with or without DHT", "settings": "0.3 nM DHT", "method": "as §1, §2"}, "AR [2]": {"tested_on": "AR", "test": "ARE-Luc (AR-dependent luciferase) reporter activity in CaP cells in CSS medium with DHT"}, "p21": {"tested_on": "p21", "test": "p21 protein level in lysates of LNCaP cells treated with DHT", "settings": "1 nM and 10 nM DHT compared to 0 nM, 0.1 nm DHT or FBS", "text": "Thus increased activity of AR due to its overexpression or hyper-stimulation with ligand inhibits cell growth, possibly due to induction of p21."}, "proteasomes": {"tested_on": "proteasomes", "test": "AR protein level in HeLa cell variants treated with proteasome inhibitor PS341"}, "[3]": {"tested_on": "CaP cells expressing endogenous AR", "test": "Growth after retroviral anti-AR shRNA transduction and hygromycin selection, CaP cells expressing endogenous AR", "settings": "retroviral vector, hygromycin selection; for growth of CaP cells expressing endogenous AR: all tested CaP cells, control anti-GFP", "text": "(§3) We confirmed that inhibition of AR signaling is growth suppressive for androgen-insensitive versions of CaP (FIG. 5). Based on what is known from clinical oncology and AR mutation databases, we hypothesized that complete inhibition of AR function would be deleterious for both androgen-dependent and androgen refractory prostate cancer cells since CaP cells very rarely loose AR signaling during progression. To estimate the dependency of prostate cancer cells on the expression of AR, we transduced them with retroviral vector expressing anti-AR siRNA with subsequent selection on hygromycin. Control cells were transduced with anti-GFP siRNA vector. Transduction efficiency was estimated in AR-negative cells, DU145.\nWe also estimated the dependency of prostate cancer cells on the expression of AR by transducing cells with a retroviral vector expressing anti-AR shRNA, followed by selection on hygromycin (FIG. 12). Control cells were transduced with anti-GFP shRNA vector; transduction efficiency was estimated on AR negative cells (DU145) transduced with the same viruses.\nFor the experiments in FIG. 12, retroviral packaging and transduction were performed as follows. Briefly, Ampho cells (Clontech) were transfected with retroviral expression vector. Medium with virus was collected at 48 h and immediately transferred onto the target cells. 8 μg/ml of polybrene (Sigma) was added to transduced cells. 24 h later, the medium was changed with fresh medium containing the appropriate antibiotic for selecting transduced cells. 10-14 days later, after complete death of control untransduced cells, the number of colonies was quantified, or cells were used for further experiments. Retroviral shRNA vectors were generated by inserting the H1 promoter and a cassette for cloning of shRNA into the right LTR of pLPCHygro plasmid (Clontech).\nFor the experiment in FIG. 12B, the number of colonies on each plate was counted and divided by number of colonies of AR-negative DU145 cells. The number of colonies of cells transduced with shRNA against GFP was set as 1. DU145 cells were obtained from ATCC."}, "AR mRNA [4]": {"tested_on": "AR mRNA", "test": "ARE-Luc reporter cotransfection with anti-AR shRNA constructs", "settings": "for ARE-Luc reporter activity: C4-2 cells, control shRNAs against GFP or FasL; for ARE-Luc reporter activity on endogenous AR: LNCaP cells, 48 h, control shGFP, shFasL", "text": "Based on what was known from clinical oncology and AR mutation databases we hypothesized that complete inhibition of AR function would be toxic for both androgen-dependent and androgen-refractory prostate cancer cells, because prostate cancer cells very rarely lose AR signaling during cancer progression. To completely block AR activity in these cells we used an RNAi approach (FIG. 11). We synthesized several shRNA constructs targeting different portions of AR mRNA using a loop model (see Example 4 above).\nReporter assays were performed by transiently transfecting cells with pARE-Luc plasmid and pcDNA-3.1 hygro plasmids (empty or AR), or plasmids with shRNAs in different proportions. Transfection efficiency was normalized by citransfection of pCMV-LacZ plasmid or pEGFP-mito (Clontech). Reporter activity was measured using a Luciferase Assay System (Promega) at 48 h."}, "C4-2 cells": {"tested_on": "C4-2 cells", "test": "Growth after retroviral anti-AR shRNA transduction and hygromycin selection, C4-2", "settings": "retroviral vector, hygromycin selection, control anti-GFP", "text": "as §3\n(§4) We also estimated the dependency of prostate cancer cells on the expression of AR by transducing cells with a retroviral vector expressing anti-AR shRNA, followed by selection on hygromycin (FIG. 12). […]\n(§5) For the experiments in FIG. 12, retroviral packaging and transduction were performed as follows. […] 10-14 days later, after complete death of control untransduced cells, the number of colonies was quantified, or cells were used for further experiments. […]\n(§6) For the experiment in FIG. 12B, the number of colonies on each plate was counted and divided by number of colonies of AR-negative DU145 cells. […]"}, "LNCaP cells": {"tested_on": "LNCaP cells", "test": "Growth after retroviral anti-AR shRNA transduction and hygromycin selection, LNCaP", "settings": "retroviral vector, hygromycin selection, control anti-GFP", "text": "as §3, §4, §5, §6"}, "endogenous AR": {"tested_on": "endogenous AR", "test": "Knock down of endogenous AR in CaP cells infected with lentiviral siAR6 and ARΔLBD", "settings": "simultaneous infection with siAR6 and ARΔLBD lentiviral vectors", "text": "To generate completely ligand independent CaP cells, we simultaneously infected cells with lentiviral vectors expressing siAR6 and ARΔLBD."}, "AR mRNA [5]": {"tested_on": "AR mRNA", "test": "ARE-Luc activity with siRNAs against translated and untranslated regions of AR mRNA", "settings": "C4-2 cells, endogenous AR", "text": "We next eliminated expression of the endogenous ligand-dependent AR in a way that would not affect the expression of the ARΔLBD mutant. To achieve this, we generated a series of lentiviral vectors expressing siRNA's against untranslated regions of AR mRNA that are missing in the generated ARΔLBD-expressing constructs. We tested their activity in C4-2 prostate cancer cells that have endogenous AR and in H1299 cells expressing only exogenous AR from the transduced construct. While all siRNA's against translated and untranslated regions of AR were active in inhibition of ARE-Luc activity in C4-2 cells, only siRNA's against translated regions were active in H1299 cells (FIG. 6)."}}, "note": "“Also recorded” adds a separate entry of the source.", "data": [{"molecule": "C[C@]12CCC(=O)C[C@@H]1CC[C@@H]1[C@@H]2CC[C@]2(C)[C@@H](O)CC[C@@H]12", "note": "[DHT, dehydrotestosterone]", "values": [{"measurement": "growth at high doses of DHT", "setting": "CWR22R cells", "value": "minor growth suppressing effect"}, {"measurement": "AR levels in cells transduced with AR-lentivirus", "setting": "AR [1]", "value": "reduced AR levels to those observed prior transduction"}, {"measurement": "growth in response to DHT", "setting": "Hela cells", "value": "not affected"}, {"measurement": "growth of AR overexpressing cells compared to GFP expressing control", "setting": "AR overexpressing cells", "value": "suppression of growth"}, {"measurement": "reporter induction by DHT", "setting": "AR [2]; CWR22R and 22Rv1 cells", "value": "up to 3.5 fold"}, {"measurement": "ARE-Luc reporter activation by DHT", "setting": "AR [2]; CWR22R cells with shAR and ARDLBD", "value": "do not respond"}, {"measurement": "reporter response to addition of DHT", "setting": "AR [2]; LNCaP, C4-2 and CWR22R cells, CSS containing 0-10 nm DHT", "value": "reporter activation"}, {"measurement": "level of p21", "setting": "p21", "value": "higher"}]}, {"molecule": "CC(C)C[C@H](NC(=O)[C@H](Cc1ccccc1)NC(=O)c1cnccn1)B(O)O", "note": "[PS341]", "values": [{"measurement": "ARΔLBD protein level", "setting": "proteasomes; HeLa cells with ARΔLBD", "value": "remained unchanged"}, {"measurement": "wtAR protein level", "setting": "proteasomes; HeLa cells with wtAR", "value": "increased; also recorded: accumulation of wild type AR protein"}]}, {"molecule": "AR1: siRNA/shRNA against AR, sequence GCTCAAGGATGGAAGTGCA, SEQ ID NO 3, target 1108-1126 (listed as DNA, chemistry not given here)", "values": [{"measurement": "growth of CaP cells expressing endogenous AR", "setting": "[3]", "value": "growth inhibitory effect; also recorded: inhibits growth"}, {"measurement": "ARE-Luc reporter activity", "setting": "AR mRNA [4]", "value": "inhibit ARE-Luc reporter activity"}, {"measurement": "ARE-Luc reporter activity on endogenous AR", "setting": "AR mRNA [4]", "value": "inhibit ARE-Luc reporter activity"}, {"measurement": "ARE-Luc reporter activity on endogenous AR", "setting": "AR mRNA [4]; listed as shAR1", "value": "maximal activity"}, {"measurement": "cell growth", "setting": "C4-2 cells", "value": "inhibited the growth"}, {"measurement": "cell growth", "setting": "LNCaP cells", "value": "inhibited the growth"}]}, {"molecule": "AR2: siRNA/shRNA against AR, sequence GCTGCTCCGCTGACCTTAA, SEQ ID NO 4, target 1642-1660 (listed as DNA, chemistry not given here)", "values": [{"measurement": "growth of CaP cells expressing endogenous AR", "setting": "[3]", "value": "no inhibitory activity"}, {"measurement": "ARE-Luc reporter activity", "setting": "AR mRNA [4]", "value": "inhibit ARE-Luc reporter activity"}, {"measurement": "ARE-Luc reporter activity on endogenous AR", "setting": "AR mRNA [4]", "value": "inhibit ARE-Luc reporter activity"}, {"measurement": "ARE-Luc reporter activity on endogenous AR", "setting": "AR mRNA [4]; listed as shAR2", "value": "did not completely block AR transcription"}]}, {"molecule": "AR3: siRNA/shRNA against AR, sequence TCTCTGTGCAAGTGCCCAA, SEQ ID NO 5, target 3814-3832 (listed as DNA, chemistry not given here)", "values": [{"measurement": "growth of CaP cells expressing endogenous AR", "setting": "[3]", "value": "no inhibitory activity"}, {"measurement": "growth-inducing property on AR expressing CaP cells", "setting": "[3]", "value": "some growth-inducing property"}, {"measurement": "ARE-Luc reporter activity", "setting": "AR mRNA [4]", "value": "inhibit ARE-Luc reporter activity"}, {"measurement": "ARE-Luc reporter activity on endogenous AR", "setting": "AR mRNA [4]", "value": "inhibit ARE-Luc reporter activity"}, {"measurement": "ARE-Luc reporter activity on endogenous AR", "setting": "AR mRNA [4]; listed as shAR3", "value": "did not completely block AR transcription"}]}, {"molecule": "AR6: siRNA against untranslated region of AR mRNA, sequence GTCAGGTCTTCAGTAGCCA, SEQ ID NO 6, target 688-706 (listed as DNA, chemistry not given here)", "values": [{"measurement": "knock down of endogenous AR", "setting": "endogenous AR", "value": "nearly complete knock down of endogenous AR"}, {"measurement": "inhibition of ARE-Luc activity", "setting": "AR mRNA [5]", "value": "most effective"}]}]}
